Results from paper PMC6364417, “Kinase inhibitor library screening identifies synergistic drug combinations effective in sensitive and resistant melanoma cells” (Journal of Experimental & Clinical Cancer Research : CR, 2019).
Where two headings read alike, the source gives them in different places.

Columns and labels:
Test in all cases: Kinase inhibitor library screening, PrestoBlue cell viability, 1 or 10 μM, 72 h
[1] = test system: IGR37 cells (parental); conditions: for Cell viability in kinase inhibitor library screening, IGR37 Parental, 1μΜ / Cell viability in kinase inhibitor library screening, IGR37 Parental, 10μΜ: in %
[2] = test system: IGR37-GP cells (Dabrafenib-resistant); conditions: for Cell viability in kinase inhibitor library screening, IGR37 GP, 1μΜ: in %
[3] = test system: A375 cells (parental)
[4] = test system: 501Mel-GP cells (Dabrafenib-resistant); conditions: for Cell viability in kinase inhibitor library screening, 501Mel GP, 1μΜ / Cell viability in kinase inhibitor library screening, 501Mel GP, 10μΜ: in %
[5] = test system: 501Mel cells (parental); conditions: for Cell viability in kinase inhibitor library screening, 501Mel Parental, 1μΜ / Cell viability in kinase inhibitor library screening, 501Mel Parental, 10μΜ: in %
Method in brief: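 Single-point screen at two doses over three days. Parental and BRAF-inhibitor-resistant sublines (XP: Vemurafenib; GP: Dabrafenib) were assessed by PrestoBlue viability, reported relative to untreated cells.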

[6] = test system: IGR37-XP cells (Vemurafenib-resistant); conditions: for Cell viability in kinase inhibitor library screening, IGR37 XP, 1μΜ: in %
[7] = test system: 501Mel-XP cells (Vemurafenib-resistant); conditions: for Cell viability in kinase inhibitor library screening, 501Mel XP, 1μΜ / Cell viability in kinase inhibitor library screening, 501Mel XP, 10μΜ: in %
[8] = test system: A375-GP cells (Dabrafenib-resistant)
[9] = test system: A375-XP cells (Vemurafenib-resistant)

COc1ccc(S(=O)(=O)N(C(C)=O)c2ccccc2/C=C/c2cc[n+]([O-])cc2)cc1 [HMN-214]
Cell viability in kinase inhibitor library screening, IGR37 Parental, 1μΜ [1]: 19.8
Cell viability in kinase inhibitor library screening, IGR37 Parental, 10μΜ [1]: 16.1
Cell viability in kinase inhibitor library screening, IGR37 GP, 10μΜ [2]: 66.9%
Cell viability in kinase inhibitor library screening, IGR37 GP, 1μΜ [2]: 69.1
Cell viability in kinase inhibitor library screening, A375 Parental, 1μΜ [3]: 34.0
Cell viability in kinase inhibitor library screening, A375 Parental, 10μΜ [3]: 23.3
Cell viability in kinase inhibitor library screening, 501Mel GP, 1μΜ [4]: 21.4
Cell viability in kinase inhibitor library screening, 501Mel GP, 10μΜ [4]: 22.7
Cell viability in kinase inhibitor library screening, 501Mel Parental, 1μΜ [5]: 17.6
Cell viability in kinase inhibitor library screening, 501Mel Parental, 10μΜ [5]: 20.7
Cell viability in kinase inhibitor library screening, IGR37 XP, 10μΜ [6]: 28.3%
Cell viability in kinase inhibitor library screening, IGR37 XP, 1μΜ [6]: 57.1
Cell viability in kinase inhibitor library screening, 501Mel XP, 1μΜ [7]: 14.9
Cell viability in kinase inhibitor library screening, 501Mel XP, 10μΜ [7]: 12.4
Cell viability in kinase inhibitor library screening, A375 GP, 1μΜ [8]: 42.6
Cell viability in kinase inhibitor library screening, A375 GP, 10μΜ [8]: 20.9
Cell viability in kinase inhibitor library screening, A375 XP, 1μΜ [9]: 37.9
Cell viability in kinase inhibitor library screening, A375 XP, 10μΜ [9]: 18.1

CNC(=O)c1ccc(-c2cnc3ncc(Cc4ccc5ncccc5c4)n3n2)cc1F [INCB28060]
cell viability (kinase inhibitor library screening) ([1]; IGR37 Parental, 1μΜ, 72 h): 106.9%
cell viability (kinase inhibitor library screening) ([1]; IGR37 Parental, 10μΜ, 72 h): 100.3%
cell viability (kinase inhibitor library screening) ([2]; IGR37 GP, 1μΜ, 72 h): 97.1%
cell viability (kinase inhibitor library screening) ([2]; IGR37 GP, 10μΜ, 72 h): 85.7%
cell viability (kinase inhibitor library screening) ([3]; A375 Parental, 1μΜ, 72 h): 103.1%
cell viability (kinase inhibitor library screening) ([4]; 501Mel GP, 1μΜ, 72 h): 81.7%
cell viability (kinase inhibitor library screening) ([4]; 501Mel GP, 10μΜ, 72 h): 67.0%
cell viability (kinase inhibitor library screening) ([5]; 501Mel Parental, 1μΜ, 72 h): 99.4%
cell viability (kinase inhibitor library screening) ([5]; 501Mel Parental, 10μΜ, 72 h): 93.5%
cell viability (kinase inhibitor library screening) ([6]; IGR37 XP, 1μΜ, 72 h): 98.3%
cell viability (kinase inhibitor library screening) ([6]; IGR37 XP, 10μΜ, 72 h): 47.6%
cell viability (kinase inhibitor library screening) ([7]; 501Mel XP, 1μΜ, 72 h): 68.2%
cell viability (kinase inhibitor library screening) ([7]; 501Mel XP, 10μΜ, 72 h): 62.9%
cell viability (kinase inhibitor library screening) ([8]; A375 GP, 1μΜ, 72 h): 103.9%
cell viability (kinase inhibitor library screening) ([8]; A375 GP, 10μΜ, 72 h): 95.7%
cell viability (kinase inhibitor library screening) ([9]; A375 XP, 1μΜ, 72 h): 106.9%
cell viability (kinase inhibitor library screening) ([9]; A375 XP, 10μΜ, 72 h): 103.3%

CC(C)n1nc(-c2ccc3oc(N)nc3c2)c2c(N)ncnc21 [INK 128]
Cell viability in kinase inhibitor library screening, IGR37 Parental, 1μΜ ([1]; IGR37 Parental, 1μΜ, 72 h): 22.4
Cell viability in kinase inhibitor library screening, IGR37 Parental, 10μΜ ([1]; IGR37 Parental, 10μΜ, 72 h): 13.5
Cell viability in kinase inhibitor library screening, IGR37 GP, 10μΜ ([2]; IGR37 GP, 10μΜ, 72 h): 16.8%
Cell viability in kinase inhibitor library screening, IGR37 GP, 1μΜ ([2]; IGR37 GP, 1μΜ, 72 h): 44.7
Cell viability in kinase inhibitor library screening, A375 Parental, 10μΜ ([3]; A375 Parental, 10μΜ, 72 h): 13.5
Cell viability in kinase inhibitor library screening, A375 Parental, 1μΜ ([3]; A375 Parental, 1μΜ, 72 h): 19.9
Cell viability in kinase inhibitor library screening, 501Mel GP, 1μΜ ([4]; 501Mel GP, 1μΜ, 72 h): 17.2
Cell viability in kinase inhibitor library screening, 501Mel GP, 10μΜ ([4]; 501Mel GP, 10μΜ, 72 h): 6.6
Cell viability in kinase inhibitor library screening, 501Mel Parental, 1μΜ ([5]; 501Mel Parental, 1μΜ, 72 h): 15.4
Cell viability in kinase inhibitor library screening, 501Mel Parental, 10μΜ ([5]; 501Mel Parental, 10μΜ, 72 h): 5.9
Cell viability in kinase inhibitor library screening, IGR37 XP, 10μΜ ([6]; IGR37 XP, 10μΜ, 72 h): 6.1%
Cell viability in kinase inhibitor library screening, IGR37 XP, 1μΜ ([6]; IGR37 XP, 1μΜ, 72 h): 27.3
Cell viability in kinase inhibitor library screening, 501Mel XP, 1μΜ ([7]; 501Mel XP, 1μΜ, 72 h): 11.6
Cell viability in kinase inhibitor library screening, 501Mel XP, 10μΜ ([7]; 501Mel XP, 10μΜ, 72 h): 2.4
Cell viability in kinase inhibitor library screening, A375 GP, 1μΜ ([8]; A375 GP, 1μΜ, 72 h): 21.6
Cell viability in kinase inhibitor library screening, A375 GP, 10μΜ ([8]; A375 GP, 10μΜ, 72 h): 13.0
Cell viability in kinase inhibitor library screening, A375 XP, 1μΜ ([9]; A375 XP, 1μΜ, 72 h): 19.9
Cell viability in kinase inhibitor library screening, A375 XP, 10μΜ ([9]; A375 XP, 10μΜ, 72 h): 12.7
